According to US7894880B2, “Measurement of renal extraction fraction using contrast enhanced computed tomography” (The Board of Trustees of the Leland Stanford Junior …, priority 2003, dated 2011):
Several values for one entry are separate records, joined by “and”; a condition that tells them apart may be missing. Identical values can stand only once.

Test: Renal extraction fraction by contrast enhanced CT after iohexol injection (retrospective study)
Assay type: in vivo, adult patients
Source text: [formula] where CA is the concentration of a filtration marker in the systemic arterial blood entering the kidney, and CV is the corresponding concentration in the renal venous blood. Standard radiographic contrast agents, including iothalamate and iohexol, may be used as filtration markers since they are freely filtered by the kidney, and neither secreted nor reabsorbed. Assuming linear increase in CT number with concentration of contrast agent, CA will be proportional to the increase in CT number of the systemic arterial blood following contrast injection, or CTA-CTPRE, where CTPRE and CTA are the pre- and post- contrast CT numbers of the systemic arterial blood. Similarly, CTV will be proportional to CTV-CTPRE, where CTV is the post-contrast CT number of a renal vein. Substituting into equation [1] yields: […]
In a retrospective study, CT scans of 10 adult patients (mean age 58.1 years, 7 female) having no known renal disease, and one patient with unilateral renal obstruction were studied. All patients had precontrast scans followed by injection of 120 ml. of iohexol (Omnipaque 350, Amersham Health, Princeton, N.J.) at 2 ml/sec., and enhanced scans through the kidney vasculature, delayed for 3 to 5 minutes after the end of the contrast injection. CT section thickness varied from 2.5 mm to 5 mm. Pre- and post-contrast delayed images were evaluated using ROI measurements taken within the abdominal aorta in the region of the renal vessels, and within right and left renal veins. Multiple measurements, one from each of several axial scans, within each vessel were obtained, varying from 2 to 4 measurements for each renal vein, and 4-8 measurements for the abdominal aorta. Mean CT number values were subsequently computed for each vessel. EF values for the right and left kidneys in each subject were then computed for each patient using equation [2] above. Propagation of error was used to estimate the standard deviation in the computed EF values, as expressed in:
[formula] where σ^2CTA, σ^2CTV, and σ^2CTPRE are the variances in the mean values for each region.

[1] = 10 patients with no history of renal disease, weighted by the inverse of the variance
[2] = individual normal subjects (no known renal disease), one line per patient, 120 ml iohexol at 2 ml/sec, scans delayed 3 to 5 minutes after injection
[3] = patient with unilateral renal obstruction

## CC(=O)N(CC(O)CO)c1c(I)c(C(=O)NCC(O)CO)c(I)c(C(=O)NCC(O)CO)c1I (stereo not drawn) [iohexol]
[1]
  Left renal EF, weighted mean ± SD: 12.3±1.3%
  Right renal EF, weighted mean ± SD: 12.6±1.0%
[2]
  Left Renal EF (calculated extraction fraction ± s.d.): 7.7 ± 6.3% and 9.1 ± 1.5% and 7.8 ± 2.6% and 21.1 ± 1.7% and 22.2 ± 3.0% and 8.3 ± 1.9% and 17.7 ± 4.7% and 8 ± 3.2% and 7.7 ± 3.1% and 7.7 ± 5.3%
  Right Renal EF (calculated extraction fraction ± s.d.): 8.3 ± 9.6% and 16.2 ± 11.6% and 7.6 ± 1.6% and 16.8 ± 3.4% and 16.7 ± 2.2% and 8 ± 5.4% and 16.2 ± 4.6% and 10.6 ± 4.5% and 18.8 ± 2.8% and 13.3 ± 3.1%
[3]
  EF in the obstructed left kidney: 9.7±4.0%
  EF in the unobstructed right kidney: 29.6±5.6%
